Consider eleven molecules from PubChem BioAssay (NCI).

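Cultured in 96-well plates, cells were exposed to test compound for 48 hours across five concentrations. The concentration for 50% growth inhibition is given as GI50. TGI: total growth inhibition.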

Holding throughout (assay): DTP human tumour cell line panel, 48 h
Experiment [1] has as its system HCC-2998 colon.
Experiment [2] relates to HCT-116 colon.
Experiment [3] concerns HL-60(TB) leukemia.
Experiment [4] deals with OVCAR-8 ovarian.
Experiment [5] relates to SK-MEL-2 melanoma.
Experiment [6] concerns SK-MEL-5 melanoma.
In experiment [7] the test system is SN12C renal.
In experiment [8] the test system is SNB-19 CNS.
The subject of experiment [9] is SNB-75 CNS.
Experiment [10] deals with SR leukemia.

Turning to `Cc1cc(NCCCN(C)C)c2ccc3c(ccc4c(NCCCN(C)C)cc(C)nc43)c2n1`, the GI50 in [1] was 0.134 µM; in experiment [2] it was 0.17 µM; in experiment [3], 0.0375 µM; in experiment [4] it was 0.114 µM; in [5] it was 228 nM; in experiment [6], 0.275 µM. Further, the GI50 in experiment [7] is 0.157 µM; in experiment [8] it was 0.181 µM; in experiment [9], 0.165 µM; in [10], 354 nM. Further, the TGI in [1] worked out at 0.323 µM; in experiment [2], 0.439 µM; in [4], 0.295 µM; in experiment [5], 0.55 µM; in [6] it was 0.945 µM; in experiment [7], 0.553 µM. Further, the TGI in experiment [8] is 0.514 µM; in experiment [9], 0.42 µM; in experiment [10], greater than 100 µM.
As for `CN(C(=O)C12C3C4C1C1C2C3C41C(N)=O)C(C)(C)C` (centres undefined), the TGI in [1], in experiment [2], in [3], in [4], in experiment [6] and in experiment [7] was greater than 100 µM throughout. Besides, the TGI in [8], in experiment [9] and in experiment [10] was greater than 100 µM throughout.
Take `COc1c(O)c2c3c(cc(C)cc3c1C(C)C)OC2`: the TGI in experiment [1], in experiment [2], in experiment [3], in [4], in [5] and in [6] was greater than 100 µM each time. The concentration for total growth inhibition (TGI) in [7], in experiment [8], in experiment [9] and in [10] was greater than 100 µM each time.
Take `O=C1NNC2(C(=O)N1)c1ccccc1-c1ccccc12`: the TGI in experiment [1], in experiment [2], in experiment [3], in experiment [4], in experiment [6] and in experiment [7] was greater than 10 µM throughout. Moreover, the TGI in [8], in experiment [9] and in experiment [10] was greater than 10 µM each time.
With `O=C1CCCCC1S(=O)(=O)c1ccccc1` (centres undefined), the TGI in experiment [1], in experiment [2], in experiment [3], in experiment [4], in [5] and in experiment [6] was greater than 100 µM in each case. Besides, the TGI in experiment [7], in experiment [8], in experiment [9] and in [10] was greater than 100 µM each time.
For `C=Cc1cncc(C#N)c1CCc1c(C#N)cncc1C=C`, the GI50 in experiment [1] is greater than 100 µM; in experiment [2], greater than 100 µM; in [3], greater than 100 µM; in experiment [4], greater than 100 µM; in experiment [5] it was greater than 100000 nM; in experiment [6] it was greater than 100 µM. Moreover, the GI50 in experiment [7], in experiment [8] and in [9] was greater than 100 µM throughout. The TGI in [1], in [2], in experiment [3], in experiment [4], in experiment [5] and in [6] was greater than 100 µM throughout. Besides, the TGI in [7] is greater than 100 µM; in experiment [8] it was greater than 100 µM; in experiment [9] it was greater than 100 µM; in experiment [10] it was greater than 10 µM.
For the molecule `COc1cc2ccnc3c2c(c1OC)-c1coc(SC)c1-3`, the TGI in [1], in experiment [2], in experiment [3], in experiment [4], in [5] and in experiment [6] was greater than 100 µM each time. Further, the TGI in experiment [7] is greater than 100 µM; in [8] it was greater than 100 µM; in experiment [9], 79.3 µM; in [10], greater than 100 µM.
On to `C=C/C=C/NC(=O)OCc1ccccc1`, for which the TGI in experiment [2], in experiment [3], in experiment [4], in experiment [5], in [6] and in [7] was greater than 100 µM in each case. Further, the TGI in experiment [8], in [9] and in [10] was greater than 100 µM throughout.
With `O=C1C(Nc2ccc(Cl)cc2)=C(I)C(=O)c2ncccc21`, the GI50 was 1.77 µM in experiment [1]; 0.305 µM in [2]; 1.51 µM in experiment [4]; 1550 nM in [5]; 1.55 µM in experiment [6]; 1.47 µM in [7]. The figures for the GI50 in experiment [8], in experiment [9] and in experiment [10] were 1.61 µM, 1.31 µM and 301 nM, respectively. Also, the TGI in experiment [1] amounted to 3.74 µM; in [2], 1.18 µM; in experiment [4], 3.12 µM; in experiment [5], 3.03 µM; in [6] it was 2.91 µM; in experiment [7], 2.99 µM. In addition, the TGI in [8] came out at 3.23 µM; in [9] it was 3.09 µM; in experiment [10] it was 2.28 µM.
As for `Cc1cc([N+](=O)[O-])c(NS(=O)(=O)c2cccc(C(=O)O)c2)cc1-c1cccnc1`, the GI50 in experiment [1], in experiment [2], in experiment [3], in experiment [4], in experiment [6] and in experiment [7] was greater than 100 µM in each case. Besides, the GI50 in experiment [8] was greater than 100 µM; in [9], greater than 100 µM; in experiment [10] it was greater than 100000 nM. The TGI in experiment [1], in [2], in experiment [3], in [4], in [6] and in experiment [7] was greater than 100 µM throughout. Also, the TGI in experiment [8], in experiment [9] and in experiment [10] was greater than 100 µM each time.
`Nc1ncnc2c1N=C(c1ccc3c(c1)OCO3)CC(c1ccc([N+](=O)[O-])cc1)N2` (centres undefined): the GI50 is 66.1 µM in experiment [1]; 18.2 µM in experiment [2]; 13.1 µM in [3]; 55.9 µM in experiment [4]; 82.9 µM in experiment [6]; 82.6 µM in experiment [7]. The GI50 in experiment [8] is 84.9 µM; in experiment [9] it was 39.4 µM; in experiment [10], 2370 nM. The TGI in experiment [1], in experiment [2], in experiment [3], in experiment [4], in [6] and in [7] was greater than 100 µM throughout. The figures for the TGI in experiment [8], in [9] and in [10] were greater than 100 µM, greater than 100 µM and 67.9 µM, respectively.
